Results on 19 molecules are retold here after ChEMBL document CHEMBL1126867, “Antipicornavirus activity of tetrazole analogues related to disoxaril” (1993).

Assay [1] concerns Human rhinovirus 1A. As to the kind of experiment: In vitro antiviral activity against human rhinovirus-1A using plaque reduction assay. The class given is functional.
Assay [2] deals with Human rhinovirus sp. As to the kind of experiment: Minimum inhibitory concentration which inhibits 80% of serotypes was determined. It counts as functional.
In assay [3] the test system is rhinovirus B14. The experiment in a line: In vitro antiviral activity against human rhinovirus-14 using plaque reduction assay. The class given is functional, human rhinovirus type 14. The note with it: Rhinovirus B.
The subject of assay [4] is Human rhinovirus 1A. The experiment in a line: In vitro antiviral activity against human rhinovirus-1A using plaque reduction assay; not active. It counts as functional, organism-based.
The test system of assay [5] is rhinovirus B14. As to the kind of experiment: In vitro antiviral activity against human rhinovirus-14 using plaque reduction assay; not active. It counts as functional, organism-based. The note with it: human rhinovirus type 14.
Assay [6] concerns Human rhinovirus sp. As to the kind of experiment: In vitro antiviral activity against human rhinovirus 2 serotype. It counts as functional.
Assay [7] concerns Human rhinovirus sp. As to the kind of experiment: In vitro antiviral activity against human rhinovirus 89 serotype. The class given is functional.
Assay [8] relates to Human rhinovirus sp. The experiment in a line: In vitro antiviral activity against human rhinovirus 1B serotype. It counts as functional.
Assay [9] deals with Human rhinovirus sp. As to the kind of experiment: In vitro antiviral activity against human rhinovirus 1A serotype. The class given is functional.
Assay [10] deals with Human rhinovirus sp. The experiment in a line: In vitro antiviral activity against human rhinovirus-22 serotype. The class given is functional.
In assay [11] the test system is Human rhinovirus sp. The experiment in a line: In vitro antiviral activity against human rhinovirus-15 serotype. The class given is functional.
The test system of assay [12] is Human rhinovirus sp. As to the kind of experiment: In vitro antiviral activity against human rhinovirus 50 serotype. The class given is functional.
Assay [13] has as its system Human rhinovirus sp. The experiment in a line: In vitro antiviral activity against human rhinovirus 67 serotype. The class given is functional.
The subject of assay [14] is Human rhinovirus sp. As to the kind of experiment: In vitro antiviral activity against human rhinovirus 6 serotype. The class given is functional.
Assay [15] concerns Human rhinovirus sp. As to the kind of experiment: In vitro antiviral activity against human rhinovirus-30 serotype. It counts as functional.
Assay [16] has as its system Human rhinovirus sp. The experiment in a line: In vitro antiviral activity against human rhinovirus-21 serotype. It counts as functional.
Assay [17] deals with Human rhinovirus sp. The experiment in a line: In vitro antiviral activity against human rhinovirus-25 serotype. The class given is functional.
In assay [18] the test system is Human rhinovirus sp. The experiment in a line: In vitro antiviral activity against human rhinovirus 86 serotype. The class given is functional.
Assay [19] deals with Human rhinovirus sp. The experiment in a line: In vitro antiviral activity against human rhinovirus-41 serotype. It counts as functional.
Assay [20] relates to Human rhinovirus sp. As to the kind of experiment: In vitro antiviral activity against human rhinovirus 14 serotype. The class given is functional.

In brackets after ≈: the same amount, converted by molar mass. Activity calls are given as the source filed them. No cut-off for these calls is given here.

As to `Cc1cc(CCCCCCCOc2c(C)cc(-c3nnn(C)n3)cc2C)on1`, the MIC50 against Human rhinovirus 1A [1] amounted to 0.76 µM (≈ 0.291 µg/mL); in the assay with rhinovirus B14 [3], 3 µM (≈ 1.15 µg/mL). The same molecule displayed an MIC80 against Human rhinovirus sp. [2] of 1.6 µM (≈ 0.614 µg/mL).
Turning to `Cc1cc(-c2nnn(C)n2)cc(C)c1OCCCCCc1cc(CO)no1`, the MIC50 was 0.18 µM (≈ 0.0669 µg/mL) in the assay with Human rhinovirus 1A [1] and 0.62 µM (≈ 0.23 µg/mL) in the assay with rhinovirus B14 [3]. The MIC80 against Human rhinovirus sp. [2] was 1.59 µM (≈ 0.591 µg/mL).
Take `CCC(O)c1cc(CCCOc2c(C)cc(-c3nnn(C)n3)cc2C)on1` (stereo unspecified): the MIC50 against rhinovirus B14 [3] is 0.13 µM (≈ 0.0483 µg/mL). The MIC50 result in the assay with Human rhinovirus 1A [4] was “inactive”.
As for `CCCCn1nnc(-c2cc(C)c(OCCCc3cc(C)no3)c(C)c2)n1`, the MIC50 entry in the assay on rhinovirus B14 [5] is “inactive”. The MIC50 against Human rhinovirus 1A [1] was 6.5 µM (≈ 2.4 µg/mL).
As to `Cc1cc(-c2nnn(C)n2)cc(C)c1OCCCc1cc(CCO)no1`, the MIC50 against Human rhinovirus 1A [1] was determined as 0.14 µM (≈ 0.05 µg/mL); against rhinovirus B14 [3] it was 2 µM (≈ 0.715 µg/mL). This molecule had an MIC80 against Human rhinovirus sp. [2] of 1.09 µM (≈ 0.39 µg/mL).
For the molecule `Cc1cc(-c2nnn(C)n2)cc(C)c1OCCCCCc1cc(C(=O)O)no1`, the MIC50 in the assay on Human rhinovirus 1A [1] worked out at 1.4 µM (≈ 0.54 µg/mL); in the assay on rhinovirus B14 [3], 30.4 µM (≈ 11.7 µg/mL).
On to `COCCc1cc(CCCOc2c(C)cc(-c3nnn(C)n3)cc2C)on1`, for which the MIC50 with Human rhinovirus 1A [1] was determined as 0.12 µM (≈ 0.0446 µg/mL); against rhinovirus B14 [3], 0.05 µM (≈ 0.0186 µg/mL). Further, in the assay with Human rhinovirus sp. [2], the MIC80 is 0.3 µM (≈ 0.111 µg/mL).
For `CCn1nnc(-c2cc(C)c(OCCCCCc3cc(C)no3)c(C)c2)n1` the same measures were 0.73 µM (≈ 0.27 µg/mL), 0.73 µM (≈ 0.27 µg/mL) and 0.65 µM (≈ 0.24 µg/mL).
For `Cc1cc(-c2nnn(C)n2)cc(C)c1OCCCc1cc(CC(O)CO)no1` (stereo unspecified), in the assay with rhinovirus B14 [5], the MIC50 entry was “inactive”. In the assay on Human rhinovirus 1A [1], this molecule registered an MIC50 of 0.67 µM (≈ 0.26 µg/mL).
`CC(=O)c1cc(CCCOc2c(C)cc(-c3nnn(C)n3)cc2C)on1`: the MIC50 against Human rhinovirus 1A [1] came to 0.12 µM (≈ 0.0426 µg/mL); against rhinovirus B14 [3], 0.96 µM (≈ 0.341 µg/mL).
Turning to `CCc1cc(CCCOc2c(C)cc(-c3nnn(C)n3)cc2C)on1`, the figures for the MIC50 against Human rhinovirus 1A [1] and against rhinovirus B14 [3] were 0.05 µM (≈ 0.0171 µg/mL) and 0.5 µM (≈ 0.171 µg/mL), respectively. The molecule also registered an MIC80 in the assay on Human rhinovirus sp. [2] of 0.41 µM (≈ 0.14 µg/mL).
Take `Cc1cc(CCCCCCOc2c(C)cc(-c3nnn(C)n3)cc2C)on1`: the values for the MIC50 with Human rhinovirus 1A [1] and with rhinovirus B14 [3] were 0.24 µM (≈ 0.0887 µg/mL) and 1.91 µM (≈ 0.706 µg/mL), respectively. Besides, the MIC80 against Human rhinovirus sp. [2] was found to be 0.73 µM (≈ 0.27 µg/mL).
With `Cc1cc(COc2c(C)cc(-c3nnn(C)n3)cc2C)on1`, the MIC50 entry in the assay on rhinovirus B14 [5] and in the assay with Human rhinovirus 1A [4] was “inactive” in each case.
Take `CCCc1cc(CCCOc2c(C)cc(-c3nnn(C)n3)cc2C)on1`: the MIC in the assay on Human rhinovirus sp. [6] is 0.04 µM (≈ 0.0142 µg/mL); in the assay on Human rhinovirus sp. [7] it was 0.02 µM (≈ 0.00711 µg/mL); against Human rhinovirus sp. [8], 0.03 µM (≈ 0.0107 µg/mL); against Human rhinovirus sp. [9], 0.12 µM (≈ 0.0427 µg/mL); against Human rhinovirus sp. [10] it was 0.08 µM (≈ 0.0284 µg/mL); in the assay on Human rhinovirus sp. [11] it was 0.68 µM (≈ 0.242 µg/mL). The MIC in the assay with Human rhinovirus sp. [12] worked out at 0.09 µM (≈ 0.032 µg/mL); against Human rhinovirus sp. [13] it was 0.22 µM (≈ 0.0782 µg/mL); against Human rhinovirus sp. [14], 0.15 µM (≈ 0.0533 µg/mL); in the assay on Human rhinovirus sp. [2], 0.2 µM (≈ 0.0711 µg/mL); against Human rhinovirus sp. [15], 0.2 µM (≈ 0.0711 µg/mL); with Human rhinovirus sp. [16] it was 0.02 µM (≈ 0.00711 µg/mL). In addition, the MIC against Human rhinovirus sp. [17] was 0.006 µM (≈ 0.00213 µg/mL); against Human rhinovirus sp. [18], 0.12 µM (≈ 0.0427 µg/mL); with Human rhinovirus sp. [19], 0.93 µM (≈ 0.331 µg/mL); in the assay on Human rhinovirus sp. [20], 0.12 µM (≈ 0.0427 µg/mL). The MIC50 in the assay on Human rhinovirus 1A [1] and against rhinovirus B14 [3] was 0.12 µM (≈ 0.0427 µg/mL) each time. The molecule further came in with an MIC80 in the assay with Human rhinovirus sp. [2] of 0.2 µM (≈ 0.0711 µg/mL).
As to `Cc1cc(-c2nnn(C)n2)cc(C)c1OCCCc1cc(C(C)C)no1`, the MIC50 was determined as 0.28 µM (≈ 0.0995 µg/mL) in the assay with Human rhinovirus 1A [1] and 0.73 µM (≈ 0.259 µg/mL) against rhinovirus B14 [3]. The molecule further displayed an MIC80 in the assay on Human rhinovirus sp. [2] of 0.73 µM (≈ 0.259 µg/mL).
On to `Cc1cc(-c2nnn(C)n2)cc(C)c1OCCCc1cc(C(C)O)no1` (stereo unspecified), for which the results for the MIC50 against Human rhinovirus 1A [1] and in the assay on rhinovirus B14 [3] were 0.14 µM (≈ 0.05 µg/mL) and 1.4 µM (≈ 0.5 µg/mL), respectively. The molecule also showed an MIC80 against Human rhinovirus sp. [2] of 1.1 µM (≈ 0.393 µg/mL).
The corresponding values for `Cc1cc(CCCCCOc2c(Cl)cc(-c3nnn(C)n3)cc2Cl)on1` are 0.38 µM (≈ 0.151 µg/mL), 0.38 µM (≈ 0.151 µg/mL) and 0.25 µM (≈ 0.0991 µg/mL).
As for `Cc1cc(CCOc2c(C)cc(-c3nnn(C)n3)cc2C)on1`, the MIC50 result in the assay on rhinovirus B14 [5] was “inactive”. Besides, in the assay with Human rhinovirus 1A [1], the MIC50 is 2.14 µM (≈ 0.671 µg/mL).
In the case of `Cc1cc(-c2nnn(C)n2)cc(C)c1OCCCc1cc(CO)no1`, the MIC50 against Human rhinovirus 1A [1] is 0.2 µM (≈ 0.0687 µg/mL); against rhinovirus B14 [3], 3.4 µM (≈ 1.17 µg/mL). Moreover, the MIC80 in the assay on Human rhinovirus sp. [2] was determined as 3.4 µM (≈ 1.17 µg/mL).
